Results on two compounds are retold here after publication PMC12298270, “Development and Validation of a New LC-MS/MS Method for Simultaneous Quantification of Ivacaftor, Tezacaftor and Elexacaftor Plasma Levels in Pediatric Cystic Fibrosis Patients” (Pharmaceuticals, 2025).

The nature of data set [1]: Plasma levels of IVA, TEZ and ELX by LC-MS/MS in pediatric cystic fibrosis patients at steady state on Kaftrio. Format: in vivo, human. The following applies: for Cmax at 4 h / AUC(0-t): both sexes, human, plasma, oral; for Cmax at 4 h / Plasma concentration T0 (Ctrough), 25th Percentile / Plasma concentration T0 (Ctrough), 75th Percentile / Plasma concentration T0 (Ctrough), Median: steady state; for Cmax at 4 h: 4 h after morning Kaftrio dose; for Plasma concentration T0 (Ctrough), 25th Percentile / Plasma concentration T0 (Ctrough), 75th Percentile / Plasma concentration T0 (Ctrough), Median: before morning Kaftrio dose. On the procedure: The clinical performance of our validated method was tested on n = 25 samples from pediatric patients affected by cystic fibrosis. Table 5 reports plasma concentrations of IVA, TEZ and ELX measured before (T0) and 4 h after (T4) the morning dose assumption of Kaftrio® (corresponding to IVA Tmax). For IVA, the plasma concentration at 12 h (T12) was obtained by using C4h*e^−β(t12−t4), and the AUC0–12h was calculated to assess the systemic exposure within the interval between two doses (Table 5). Thereafter, AUC0–12h values were multiplied by 2 in order to perform a regression analysis of T0 concentrations versus AUC0–24h.
The clinical applicability of our validated method was tested on n = 25 plasma samples from pediatric patients with a median (range) age of 9.5 (7–17) years and affected by cystic fibrosis (CF). These patients (n = 14 males and n = 11 females) were followed-up during the routine clinical practice at Pneumology and Cystic Fibrosis Unit of Bambino Gesù Children’s Hospital, and were concomitantly receiving therapies with pancreatic enzymes, bronchodilators, antibiotics (including carbapenems, macrolides, beta-lactams, lipopeptides, fluoroquinolones) and proton pump inhibitors.
In order to evaluate systemic exposure to each CFTR modulator, drug levels were measured at steady-state by collecting EDTA–whole blood samples before (T0, corresponding to the minimum plasma concentration, Ctrough,) and 4 h after the morning dose intake (T4, corresponding to the maximum concentration, Cmax). After centrifugation at 3500 rcf for 5 min, plasma was recovered from whole blood samples. Plasma samples were collected and stored at −80 °C until analysis.
According to the Kaftrio® summary of product characteristics (SmPC), patients received a morning dose consisting of two ivacaftor 75 mg/tezacaftor, 50 mg/elexacaftor, 100 mg tablets, whereas one ivacaftor 150 mg tablet was taken in the evening (every 12 h).
Elexacaftor/tezacaftor/ivacaftor plasma levels were determined using high-performance liquid chromatography (HPLC) coupled to mass spectrometry (MS/MS). EDTA–whole blood samples were collected before (T0) and 4 h after (T4) morning drug intake. Analysis of Kaftrio® plasma levels was performed at Division of Metabolic Diseases and Drug Biology of Bambino Gesù Children’s Hospital, IRCCS, in Rome (Italy). The liquid chromatography (LC) system consisted of an UHPLC Agilent 1290 Infinity II (Agilent Technologies, Deutschland GmbH, Waldbronn, Germany). Gradient chromatographic separation was performed in reverse phase mode with a Luna Omega 1.60 µm Polar C18 (100 × 2.1 mm) column (Phenomenex) maintained at 40 °C, with mobile phase A (0.1% formic acid (FA) in water) and mobile phase B (0.1% formic acid and 25% of 2-propanol in ACN). The flow rate of mobile phases was 0.4 mL/min. The duration of each chromatographic run was 10.50 min.
The volume injected was 1 μL. Detection of IVA, IVA-d9, TEZ, TEZ-d4, ELX and ELX-d3 was carried out using a 6470 Mass Spectrometry system (Agilent Technologies, Deutschland GmbH, Waldbronn, Germany) equipped with an ESI-JET-STREAM source operating in the positive ion (ESI+) mode. Mass spectrometric conditions were as follows: Gas Temperature 350 °C, Gas Flow 9 L/min, Sheath Gas Temperature 300 °C, Sheath Gas Flow 9 L/min, Capillary 4000 V, Nebulizer 35 psi.
A 10 µL measure of IS working solution with IVA-d9, TEZ-d4 and ELX-d3 was added to 50 µL of plasma or CAL or QC or blank sample in darkened tubes. After vortexing for 5 s, 300 µL of pure ACN were added to each sample. Samples were mixed for 60 s and centrifuged at 13,000 rpm for 9 min at room temperature. Thereafter, 200 µL of supernatant were collected in amber glass vials and injected into the UHPLC-MS/MS system.
Demographic data and PK parameters were analyzed using descriptive statistics. The median with interquartile range (IQR) was used to describe Ctrough levels. […]

Data set [2] is described as follows: Short- and long-term autosampler stability of prepared QC samples at room temperature. The note with it: for Stability (%): autosampler; for 9-day autosampler stability: across L-, M- and H-QC levels. Format: physicochemical. How it is done:
Both short- and long-term stability were evaluated on prepared QC samples kept at room temperature for a maximum of 9 days. After 24 h from QC sample preparation and first assessment (Time 0), the stability was around 100% for all QC samples. […] Autosampler stability was tested by analyzing IVA, TEZ and ELX concentrations in QCs maintained at room temperature at time 0 (corresponding to preparation of QC samples and to the first measurement) and after 24 h (short-term stability) or 9 days (long-term stability). We also evaluated, on prepared low-, medium- and high-QC samples, the stability following one cycle of freezing (−80 °C) and thawing (after 12 days). To further assess long-term stability, n = 3 T0 and T4 of authentic samples, stored at −80 °C over a period of five months, were randomly chosen and re-analyzed. The percentage difference between the concentration measured at each sampling point and the initial concentration was calculated. Based on ICH guideline M10, a percentage difference below the 15% was considered acceptable.

Data set [3] is described as follows: Long-term −80 °C stability of authentic patient plasma samples. Format: physicochemical, human. The note with it: for Stability, % of the first measurement: n = 3 T0 and T4 patients' samples, −80 °C, five months; for Stability (%) mean ± SD, T0 samples / Stability (%) mean ± SD, T4 samples: patient plasma n = 3, stored at −80 °C, 5 months vs Time 0. On the procedure:
(§1) We have also evaluated the stability of prepared low-, medium- and high-QC samples following one cycle of freezing (−80 °C) and thawing (after 12 days). The calculated stability for ivacaftor, tezacaftor and elexacaftor was 100–107% after 12 days. Patient samples (n = 3 T0 and T4) were randomly selected and re-analyzed after being stored at −80 °C over a period of five months. Compared to the first measurement (time 0), the stability ranged from 85.48 ± 19.83% (mean ± SD) for IVA T4 to 90.55 ± 2.42% for ELX T0 (Supplementary Table S2). Autosampler stability was tested by analyzing IVA, TEZ and ELX concentrations in QCs maintained at room temperature at time 0 (corresponding to preparation of QC samples and to the first measurement) and after 24 h (short-term stability) or 9 days (long-term stability). We also evaluated, on prepared low-, medium- and high-QC samples, the stability following one cycle of freezing (−80 °C) and thawing (after 12 days). To further assess long-term stability, n = 3 T0 and T4 of authentic samples, stored at −80 °C over a period of five months, were randomly chosen and re-analyzed. The percentage difference between the concentration measured at each sampling point and the initial concentration was calculated. Based on ICH guideline M10, a percentage difference below the 15% was considered acceptable.

The nature of data set [4]: Stability of prepared QC samples after one cycle of freezing (−80 °C) and thawing. The following applies: low-, medium- and high-QC samples, thawed after 12 days. The class given is physicochemical. How it is done:
as §1

Where [5] appears, read: n = 25 pediatric CF patients, read-out: Plasma concentration T4 (Cmax), 25th Percentile.
Where [6] appears, read: n = 25 pediatric CF patients, read-out: Plasma concentration T4 (Cmax), 75th Percentile.
Setting [7] is: n = 25 pediatric CF patients, read-out: Plasma concentration T4 (Cmax), Median.
[8] abbreviates: H-QC (18 µg/mL), 24 H vs Time 0.
Setting [9] is: H-QC (18 µg/mL), Day 9 vs Time 0.
Where [10] appears, read: L-QC (0.3 µg/mL), 24 H vs Time 0.
[11] abbreviates: L-QC (0.3 µg/mL), Day 9 vs Time 0.
[12] abbreviates: M-QC (8 µg/mL), Day 9 vs Time 0.

SMILES strings stand for the structures. Like-named read-outs stand apart in the source and are kept apart here.

`CC(C)(C)c1cc(C(C)(C)C)c(NC(=O)c2c[nH]c3ccccc3c2=O)cc1O` [IVA, Ivacaftor]: the Cmax at 4 h in data set [1] (setting [5]) was 1070 ng/mL; in data set [1] (setting [6]), 2430 ng/mL; in data set [1] (setting [7]), 1490 ng/mL. Besides, the AUC(0-t) in data set [1] (n = 25 pediatric CF patients, C12h estimated as C4h*e^−β(t12−t4), read-out: Measured AUC0–12h, 25th Percentile) was 7930 ng·h/mL; in data set [1] (n = 25 pediatric CF patients, C12h estimated as C4h*e^−β(t12−t4), read-out: Measured AUC0–12h, 75th Percentile) it was 19400 ng·h/mL; in data set [1] (n = 25 pediatric CF patients, C12h estimated as C4h*e^−β(t12−t4), read-out: Measured AUC0–12h, Median), 11400 ng·h/mL. In addition, the “Back-calculated Ctrough (T0), median (IQR)” value in data set [1] (from regression equation of AUC0–24h versus Ctrough (y = 27.6 * x + 4.30)) is 0.80 (0.42–1.32) µg/mL. Moreover, the “Plasma concentration T0 (Ctrough), 25th Percentile” value in data set [1] (n = 25 pediatric CF patients) came to 0.37 µg/mL. Moreover, the “Plasma concentration T0 (Ctrough), 75th Percentile” value in data set [1] (n = 25 pediatric CF patients) is on record as 1.34 µg/mL. In data set [1] (n = 25 pediatric CF patients), the “Plasma concentration T0 (Ctrough), Median” value is given as 0.79 µg/mL. The “Measured AUC0–12h, 25th Percentile” value in data set [1] (n = 25 pediatric CF patients, C12h estimated as C4h*e^−β(t12−t4)) was 5.33 µg·h/mL. Further, the “Stability (%)” value was 101.29% in data set [2] (setting [8]); 73.54% in data set [2] (setting [9]); 101.51% in data set [2] (setting [10]); 75.75% in data set [2] (setting [11]); 99.88% in data set [2] (M-QC (8 µg/mL), 24 H vs Time 0); 78.27% in data set [2] (setting [12]). Besides, the 9-day autosampler stability is on record as 76% in data set [2] (9 days from day 0) and 73.54–78.27% in data set [2] (9 days from day 0, listed as ivacaftor). Moreover, the “Stability, % of the first measurement” value in data set [3] is given as “higher than 85%”. For the same compound, in data set [3], the “Stability (%) mean ± SD, T0 samples” value came out at 86.96 ± 3.98%. Further, in data set [3], the “Stability (%) mean ± SD, T4 samples” value is on record as 85.48 ± 19.83%. Also, the “Stability after one cycle of freezing and thawing” value in data set [4] is recorded as 100–107%.

For the compound `CC(C)(CO)c1cc2cc(NC(=O)C3(c4ccc5c(c4)OC(F)(F)O5)CC3)c(F)cc2n1C[C@@H](O)CO` [TEZ, Tezacaftor], the Cmax at 4 h in data set [1] (setting [5]) worked out at 3750 ng/mL; in data set [1] (setting [6]) it was 6320 ng/mL; in data set [1] (setting [7]), 4520 ng/mL. Besides, the “Plasma concentration T0 (Ctrough), 25th Percentile” value in data set [1] (n = 25 pediatric CF patients) was 0.72 µg/mL. Further, in data set [1] (n = 25 pediatric CF patients), the “Plasma concentration T0 (Ctrough), 75th Percentile” value amounted to 1.87 µg/mL. Further, the “Plasma concentration T0 (Ctrough), Median” value in data set [1] (n = 25 pediatric CF patients) was found to be 1.37 µg/mL. Also, the “Stability (%)” value in data set [2] (setting [8]) was 101.39%; in data set [2] (setting [9]), 105.83%; in data set [2] (setting [10]), 96.55%; in data set [2] (setting [11]), 103.79%; in data set [2] (M-QC (8 µg/mL), 24 H vs Time 0) it was 100.12%; in data set [2] (setting [12]), 105.32%. The “Stability, % of the first measurement” value in data set [3] was “higher than 85%”. Further, the “Stability (%) mean ± SD, T0 samples” value in data set [3] was 89.35 ± 4.87%. For the same compound, the “Stability (%) mean ± SD, T4 samples” value in data set [3] worked out at 85.51 ± 11.87%. In addition, the “Stability after one cycle of freezing and thawing” value in data set [4] was 100–107%.
